ChEMBL document CHEMBL1159239, “Patellamide F, A new cytotoxic cyclic peptide from the colonial ascidian Lissoclinum patella” (1995)

Assay: Cytotoxicity against human NCI60 cells
Assay type: functional
Settings: read-out: LC50 (the source's name)

First: CC[C@H](C)[C@@H]1NC(=O)c2csc(n2)[C@@H](C)NC(=O)[C@H]2N=C(O[C@@H]2C)[C@H](CC(C)C)NC(=O)c2csc(n2)[C@@H](Cc2ccccc2)NC(=O)[C@H]2N=C1O[C@@H]2C [PATELLAMIDE B]
Second: CC(C)[C@@H]1NC(=O)c2csc(n2)[C@@H](C(C)C)NC(=O)[C@H]2N=C(O[C@@H]2C)[C@H](C(C)C)NC(=O)c2csc(n2)[C@@H](Cc2ccccc2)NC(=O)[C@@H]2COC1=N2 [PATELLAMIDE F]
The CC50 of the first is 3.7-fold lower: 13 µM for the first, 48 µM for the second.

Work on `CC(C)C[C@H]1NC(=O)[C@H]2N=C(O[C@@H]2C)[C@H]2CSSC[C@@H](NC(=O)c3csc1n3)C1=N[C@H](C(=O)N[C@H](CC(C)C)c3nc(cs3)C(=O)N2)[C@@H](C)O1` [ULITHIACYCLAMIDE] yielded a CC50 of 3 µM.
